According to US4223021A, “Synthetic peptides having pituitary growth hormone releasing activity” (priority 1979, dated 1980):
Residues, ends and D or L forms follow the SMILES beside them.

System: pituitaries removed from 20 day old female rats
Experiment: In vitro growth hormone release study (incubated rat pituitaries, GH radioimmunoassay)
Type: cell-based
Conditions: mean ± SEM, control -198± 85
Method: Female rats of the CD-1 strain were housed in a constant temperature room at 24° C. with 14 hours light and 10 hours darkness. The rats were fed Purina brand rat chow ab libitum.
All studies were started between 0800 and 1000 hours.
Pituitaries were removed from 20 day old female rats. Two pituitaries were incubated at 36° C. in 1 ml of lactated Ringer's solution in 10 ml polytetrafluoroethylene beakers in a Dubnoff Shaker (90 cycles/min.). The pituitaries were incubated a total of 4 hours (P1, P2, I3, and I4). After two successive one hour preincubation periods (P1, P2), the peptide was added to the incubation medium hourly for 2 hours (I3, I4).
This in vitro study was performed in triplicate and a standard radioimmunoassay of growth hormone present in the incubation medium was performed in duplicate. The hormonal activity was calculated as the difference (Δ) of growth hormone (GH) levels between I3, I4 and P2, i.e., (I3 -P2) and (I4 -P2). P values were calculated by Students' t test using six growth hormone values for each value recorded.
The growth hormone radioimmunoassay reagents were distributed by the National Institute of Arthritis and […] (NIAMDD) program. The growth hormone values were calculated in terms of nanograms (ng) of a rat standard with a growth hormone potency of 0.61 units/mg.

NC(=O)[C@@H](Cc1ccccc1)NC(=O)[C@H](Cc1ccccc1)NC(=O)[C@@H](Cc1c[nH]c2ccccc12)NC(=O)CNC(=O)[C@@H](N)Cc1ccc(O)cc1 [H2 N-Tyr-Gly-D-Trp-Phe-D-Phe-CONH2] (HELM PEPTIDE1{Y.G.[dW].F.[dF].[am]}$$$$V2.0)
In vitro growth hormone release (ΔGH, I3/I4 minus P2) (1μg peptide, P value not significant): 200 ± 167 ngΔGH/ml incubation medium
In vitro growth hormone release (ΔGH, I3/I4 minus P2) (10μg peptide, P value <0.001): 1384 ± 120 ngΔGH/ml incubation medium
In vitro growth hormone release (ΔGH, I3/I4 minus P2) (100μg peptide, P value <0.001): 1196 ± 194 ngΔGH/ml incubation medium
